One assay deals with T1, HIV-RT (HIV-1 M:B_HXB2R, UniProt P04585).
T1 construct: mature RT cut from Gag-Pol polyprotein (Pr160Gag-Pol)
Put plainly: Incorporation of oxidized dCTP derivatives into gapped M13mp2 DNA by HIV-RT. The settings on record: for Molecules incorporated by HIV-RT per molecule of template: 2 min incubation. It counts as biochemical. How it is done:
The purification of oxidized derivatives of dCTP is monitored by measuring incorporation into gapped DNA. The gapped DNA consists of a single-stranded circular M13mp2 DNA containing uracil residues annealed to a linear incomplete complementary strand lacking uracil so as to create a 361-nt gap spanning part of the lacZ gene (prepared as described in Feig and Loeb, Biochemistry 32:4466-73, 1993). The reaction mixture (0.02 ml) contains: 200 ng of gapped DNA, 60 mM Tris-HCl (pH 8.0), 10 mM KCl, 7 mM MgCl2, 1 mM dithiothreitol, 0.5 mM EDTA, 200 μM (each) dATP, dGTP and TTP, 1 μM α-^32 P!dCTP or modified dCTP (692 cpm/pmol), and 1.25 units of recombinant HIV-RT (Preston et al., Science 242:1168-1171, 1988) (1 unit is the amount of enzyme required to catalyze the incorporation of 1 nmol of dNTP into DNA in 1 h at 37° C.). The nucleotide bias in this reaction drives the incorporation of modified cytosine only at sites opposite guanosines in the lacZα gene. Samples are extracted once each with phenol and chloroform/isoamyl alcohol, 24:1, followed by ethanol precipitation in the presence of 400 mM NaCl and 10 μg of glycogen (as a coprecipitant). […]
The column fractions are used in place of dCTP for DNA synthesis reactions. […] Partially double-stranded DNA products are purified, and gap filling synthesis is completed using the Klenow fragment of E. coli DNA polymerase I. Incorporation of oxidized cytosine derivatives is quantified by scintillation counting and the toxicity of the fractions is assessed by comparing the transfection efficiency of DNA synthesized by using fractions containing the altered nucleotides to that of DNA synthesized with dCTP passed through the same column. The mutagenicity of each fraction is measured by scoring forward mutations in the lacZ gene for β-galactosidase (Kunkel, Proc. Natl. Acad Sci. USA 81:1494-1498, 1984).

A further assay deals with lacZ gene. Put plainly: Forward mutation assay in lacZ of gapped M13mp2 DNA (reduced α-complementation) after transfection into E. coli. It counts as cell-based. The settings on record: for Transfection efficiency, plaques per ng: Table I, gap filled by pol-I1f; for Transfection efficiency, plaques per ng / Transfection efficiency (yield of transfectants) / Mutation frequency: with HIV-RT; for Mutation frequency: number of mutants in parentheses in Table I. From the text: The column fractions are used in place of dCTP for DNA synthesis reactions. The DNA template is a double-stranded M13mp2 molecule with a 361-nt single-stranded gap spanning part of the lacZ gene for bacterial β-galactosidase. The uracil-containing strand is rapidly hydrolyzed upon transfection in E. coli, resulting in a 10^4 -fold preferential expression of the strand lacking uracil and preventing the repair of altered cytidines incorporated into the strand lacking uracil. DNA synthesis is catalyzed by HIV RT in the presence of 200 μM dATP, dGTP and TTP and 1 μM of each fraction from the reverse-phase column. Partially double-stranded DNA products are purified, and gap filling synthesis is completed using the Klenow fragment of E. coli DNA polymerase I. Incorporation of oxidized cytosine derivatives is quantified by scintillation counting and the toxicity of the fractions is assessed by comparing the transfection efficiency of DNA synthesized by using fractions containing the altered nucleotides to that of DNA synthesized with dCTP passed through the same column. The mutagenicity of each fraction is measured by scoring forward mutations in the lacZ gene for β-galactosidase (Kunkel, Proc. Natl. Acad Sci. USA 81:1494-1498, 1984).
Mutations produced by the incorporation of oxidized derivatives of dCTP into gapped DNA are identified by reduced α-complementation of β-galactosidase activity. Logarithmic-phase MC1061 hsdR, mcrR, araD, (139.increment.^- araABC^- leu) 7679.increment.lacX74, galU, galK, rspL, thi^- ! is prepared for electroporation by washing the cells four times with sterile H2 O. Cells are then pelleted and resuspended in a volume of H2 O equal to that of the packed cells. Fifty nanograms of the filled-gap DNA product is mixed with 300 μl of cells and subjected to electroporation using a Bio-Rad Gene Pulser ([…], 400 W, 2.0 KV, and time constants between 6.0 and 7.5). Samples are placed on ice and mixed with 1 ml of LB medium. Aliquots (10-40 μl) of the transfection mixtures are added to 3 ml of molten top agar (42° C.) consisting of 0.9% NaCl, 0.8% Bacto Agar, 0.08% 5-bromo-4-chloro-3-indolylβ-D-galactoside dissolved in dimethlyformamide, and 0.2 ml of CSH50 .increment.(proBlac)/F'+raD36, thi^-, ara^-, proAB, lacI^α Z^- .increment.m15! cells in logarithmic phase, and layered onto plates containing 30 ml of solidified M9 medium supplemented with 1.5% Bacto Agar and 15 mM isopropyl-β-D-thiogalactoside (IPTG). Phenotypes are confirmed by mixing mutant phage with an equal quantity of wild type M13mp2 phage and replating. Phage DNA is isolated (Kunkel, Proc. Natl. Sci. USA 81:1494-1498, 1984) and sequenced by the method of Sanger etal. (J. Mol. Biol. 125:225-246, 1978) using a 15-mer oligodeoxyribonucleotide primer complementary to the +179 to +194 segment of the lacZα coding sequence.
Mutagenic potential of γ is assessed by using a forward mutation assay. To reduce the frequency of mutations arising from the incorporation of noncomplementary nucleotides by HIV-RT, this incubation is performed for only 2 min. Under these conditions, HIV-RT incorporates approximately five molecules of γ or nine molecules of undamaged dCTP per molecule of template. The gapped DNA is then completely filled by pol-I1f (the large fragment of E. coli DNA polymerase I) using the four undamaged nucleotides as substrates. The transfection efficiencies and mutation frequencies are given in Table I. In reactions without HIV-RT, 1040 transfectants are obtained per ng DNA, whereas with HIV-RT and undamaged dCTP ("purified" by reverse-phase and strong-anion exchange chromatography) the yield is 165 transfectants per ng of DNA. Substitution of γ for dCTP further reduced transfection efficiency, 73 transfectants per ng of DNA. In the absence of HIV-RT the mutation frequency is 4.6×10^-4 (line 1, Table I). […]

For assay [1], the system named is mammalian DNA polymerase-α. Put plainly: Incorporation by mammalian DNA polymerase-α. It counts as biochemical. As for the experimental part:
(§1) Five different mammalian DNA polymerases have been identified, purified and characterized. These are designated as DNA polymerases α, β, γ, δ, ε based on their amino acid sequences, intracellular localization and presumed role in cellular DNA metabolism (Fry and Loeb, CRC Press, 1986). The ability of a human DNA polymerase to incorporate a deoxynucleoside triphosphates analogs is determined using a DNA template that corresponds to the sequence of the RNA template used to analyze incorporation by HIV RT. A direct comparison is made on the incorporation of nucleoside analogs in the triphosphate form using a human DNA polymerase with that of HIV RT.

The test system of assay [2] is mammalian DNA polymerase-β. The assay can be described thus: Incorporation by mammalian DNA polymerase-β. It counts as biochemical. As for the experimental part: as §1

The source of these data is patent US5512431A, “Methods of screening for nucleoside analogs that are incorporated by HIV reverse transcriptase and cause incorrect base pairing” (priority 1994, dated 1996).

SMILES strings stand for the structures.

Consider `Nc1ccn([C@H]2C[C@H](O)[C@@H](COP(=O)(O)OP(=O)(O)OP(=O)(O)O)O2)c(=O)n1` [dCTP, reference compound], for which the “Molecules incorporated by HIV-RT per molecule of template” value at HIV-RT was “nine”. In the assay with lacZ gene, the “Transfection efficiency, plaques per ng” value turned out to be 165 plaques per ng; the “Transfection efficiency (yield of transfectants)” value is given as 165 transfectants per ng of DNA; the Mutation frequency is listed as 11 × 10^-4. For the same compound, the “Increase of mutation frequency by reaction with HIV-RT and dCTP” value in the assay with lacZ gene (versus absence of HIV-RT) was 2.4 fold.
For `Nc1nc(=O)n([C@H]2C[C@H](O)[C@@H](COP(=O)(O)OP(=O)(O)OP(=O)(O)O)O2)cc1O` [γ, 5-hydroxy-2'-deoxycytidine 5'-triphosphate], the “Molecules incorporated by HIV-RT per molecule of template” value on HIV-RT is “approximately five”. In addition, the “Efficiency of incorporation into DNA by HIV-RT, % of that for dCTP” value on HIV-RT (relative to dCTP, gapped DNA) is reported as “about 56%”. Further, the “Incorporation by mammalian DNA polymerase-α” value in assay [1] is “Neither species is incorporated appreciably”. Further, in the assay on lacZ gene (173 mutations, 92 mutants sequenced), the “Mutations that were C→T transitions” value is 95.6%. In the assay on lacZ gene (178 of 181 substitutions, 92 mutants sequenced), the “Observed substitutions that occur at cytosines” value worked out at 98.3%. Besides, in the assay on lacZ gene, the “Transfection efficiency, plaques per ng” value is reported as 73 plaques per ng; the “Transfection efficiency (yield of transfectants)” value was 73 transfectants per ng of DNA; the Mutation frequency is given as 1200×10^-4. Further, the “Increase of mutation frequency” value in the assay with lacZ gene (average of five molecules of γ per template DNA, versus reaction with dCTP) came out at 109 fold. Moreover, the “Incorporation by mammalian DNA polymerase-β relative to dCTP” value in assay [2] is listed as 18%.
